Experimental data reported in article PMC4503722, “Novel Phenotypic Outcomes Identified for a Public Collection of Approved Drugs from a Publicly Accessible Panel of Assays” (PLoS ONE, 2015).

test system: HCT116 cells treated with a GSK3β inhibitor; assay: cells; assay type: cell-based; conditions: Homo sapiens, HCT-116, 72 h, read-out: HCT-116 (GSK3β) viab. IC50

Compound	IC50
Cc1nc2ccc(CN(C)c3ccc(C(=O)N[C@@H](CCC(=O)O)C(=O)O)s3)cc2c(=O)[nH]1 [raltitrexed, reference compound]	2 nM
COc1cc(NCc2ccc3nc(N)nc(N)c3c2C)cc(OC)c1OC [trimetrexate, reference compound]	4 nM

same assay, conditions: Homo sapiens, HCT-116, read-out: GSK3b inh pretreated_Viability ATP HCT116

Compound	IC50
Cc1nc2ccc(CN(C)c3ccc(C(=O)N[C@@H](CCC(=O)O)C(=O)O)s3)cc2c(=O)[nH]1 [raltitrexed, reference compound]	2.3 nM
COc1cc(NCc2ccc3nc(N)nc(N)c3c2C)cc(OC)c1OC [trimetrexate, reference compound]	3.92 nM

test system: HT-29; assay: cells; assay type: cell-based; conditions: Homo sapiens, HT-29, 72 h, read-out: HT-29 viab. IC50

Compound	IC50
Cc1nc2ccc(CN(C)c3ccc(C(=O)N[C@@H](CCC(=O)O)C(=O)O)s3)cc2c(=O)[nH]1 [raltitrexed, reference compound]	> 20000 nM
COc1cc(NCc2ccc3nc(N)nc(N)c3c2C)cc(OC)c1OC [trimetrexate, reference compound]	21 nM

same assay, conditions: Homo sapiens, HT-29, read-out: Basal_Viability ATP HT-29

Compound	IC50
COc1cc(NCc2ccc3nc(N)nc(N)c3c2C)cc(OC)c1OC [trimetrexate, reference compound]	21.2 nM

test system: endothelial tube formation in co-cultures of ECFCs and ADSCs treated with VEGF; assay: cells; assay type: cell-based, human; conditions: Homo sapiens, read-out: Anti-Angio IC50

Compound	IC50
Cc1nc2ccc(CN(C)c3ccc(C(=O)N[C@@H](CCC(=O)O)C(=O)O)s3)cc2c(=O)[nH]1 [raltitrexed, reference compound]	350 nM
COc1cc(NCc2ccc3nc(N)nc(N)c3c2C)cc(OC)c1OC [trimetrexate, reference compound]	4400 nM

same assay, conditions: Homo sapiens, read-out: Anti-Angiogenesis

Compound	IC50
Cc1nc2ccc(CN(C)c3ccc(C(=O)N[C@@H](CCC(=O)O)C(=O)O)s3)cc2c(=O)[nH]1 [raltitrexed, reference compound]	354 nM
COc1cc(NCc2ccc3nc(N)nc(N)c3c2C)cc(OC)c1OC [trimetrexate, reference compound]	4420 nM

test system: HeLa cells; assay: cells; assay type: cell-based; conditions: Homo sapiens, HeLa, read-out: CellCycle G2/M

Compound	EC50
Cc1nc2ccc(CN(C)c3ccc(C(=O)N[C@@H](CCC(=O)O)C(=O)O)s3)cc2c(=O)[nH]1 [raltitrexed, reference compound]	> 10000 nM
COc1cc(NCc2ccc3nc(N)nc(N)c3c2C)cc(OC)c1OC [trimetrexate, reference compound]	> 10000 nM

test system: Colo320; assay: cells; assay type: cell-based; conditions: Homo sapiens, COLO 320, 72 h, read-out: Colo320 viab. IC50

Compound	IC50
Cc1nc2ccc(CN(C)c3ccc(C(=O)N[C@@H](CCC(=O)O)C(=O)O)s3)cc2c(=O)[nH]1 [raltitrexed, reference compound]	> 20000 nM
COc1cc(NCc2ccc3nc(N)nc(N)c3c2C)cc(OC)c1OC [trimetrexate, reference compound]	390 nM

same assay, conditions: Homo sapiens, COLO 320, read-out: Basal_Viability ATP Colo 320

Compound	IC50
COc1cc(NCc2ccc3nc(N)nc(N)c3c2C)cc(OC)c1OC [trimetrexate, reference compound]	386 nM

test system: nuclear β-catenin in C2C12 cells; assay: cells; assay type: cell-based; conditions: Mus musculus, C2C12, read-out: Wnt Pathway

Compound	EC50
Cc1nc2ccc(CN(C)c3ccc(C(=O)N[C@@H](CCC(=O)O)C(=O)O)s3)cc2c(=O)[nH]1 [raltitrexed, reference compound]	4.2 nM
COc1cc(NCc2ccc3nc(N)nc(N)c3c2C)cc(OC)c1OC [trimetrexate, reference compound]	3.3 nM

same assay, conditions: Mus musculus, C2C12, read-out: Wnt pot. EC50

Compound	EC50
Cc1nc2ccc(CN(C)c3ccc(C(=O)N[C@@H](CCC(=O)O)C(=O)O)s3)cc2c(=O)[nH]1 [raltitrexed, reference compound]	4 nM
COc1cc(NCc2ccc3nc(N)nc(N)c3c2C)cc(OC)c1OC [trimetrexate, reference compound]	3 nM

test system: INS-1E cells; assay: cells; assay type: cell-based, rat; conditions: Rattus norvegicus, INS-1E, read-out: Ins. sec. EC50

Compound	EC50
Cc1nc2ccc(CN(C)c3ccc(C(=O)N[C@@H](CCC(=O)O)C(=O)O)s3)cc2c(=O)[nH]1 [raltitrexed, reference compound]	> 10000 nM
COc1cc(NCc2ccc3nc(N)nc(N)c3c2C)cc(OC)c1OC [trimetrexate, reference compound]	> 10000 nM

biological target: T1, hJAK2 (Homo sapiens, UniProt O60674); assay: Cerep LANCE kinase assay hJAK2 (S1 assay 33); assay type: biochemical; conditions: read-out: JAK2
T1 construct: purchased Cerep (LANCE kinase assay platform, contract assay)
T1 sequence (O60674 whole entry): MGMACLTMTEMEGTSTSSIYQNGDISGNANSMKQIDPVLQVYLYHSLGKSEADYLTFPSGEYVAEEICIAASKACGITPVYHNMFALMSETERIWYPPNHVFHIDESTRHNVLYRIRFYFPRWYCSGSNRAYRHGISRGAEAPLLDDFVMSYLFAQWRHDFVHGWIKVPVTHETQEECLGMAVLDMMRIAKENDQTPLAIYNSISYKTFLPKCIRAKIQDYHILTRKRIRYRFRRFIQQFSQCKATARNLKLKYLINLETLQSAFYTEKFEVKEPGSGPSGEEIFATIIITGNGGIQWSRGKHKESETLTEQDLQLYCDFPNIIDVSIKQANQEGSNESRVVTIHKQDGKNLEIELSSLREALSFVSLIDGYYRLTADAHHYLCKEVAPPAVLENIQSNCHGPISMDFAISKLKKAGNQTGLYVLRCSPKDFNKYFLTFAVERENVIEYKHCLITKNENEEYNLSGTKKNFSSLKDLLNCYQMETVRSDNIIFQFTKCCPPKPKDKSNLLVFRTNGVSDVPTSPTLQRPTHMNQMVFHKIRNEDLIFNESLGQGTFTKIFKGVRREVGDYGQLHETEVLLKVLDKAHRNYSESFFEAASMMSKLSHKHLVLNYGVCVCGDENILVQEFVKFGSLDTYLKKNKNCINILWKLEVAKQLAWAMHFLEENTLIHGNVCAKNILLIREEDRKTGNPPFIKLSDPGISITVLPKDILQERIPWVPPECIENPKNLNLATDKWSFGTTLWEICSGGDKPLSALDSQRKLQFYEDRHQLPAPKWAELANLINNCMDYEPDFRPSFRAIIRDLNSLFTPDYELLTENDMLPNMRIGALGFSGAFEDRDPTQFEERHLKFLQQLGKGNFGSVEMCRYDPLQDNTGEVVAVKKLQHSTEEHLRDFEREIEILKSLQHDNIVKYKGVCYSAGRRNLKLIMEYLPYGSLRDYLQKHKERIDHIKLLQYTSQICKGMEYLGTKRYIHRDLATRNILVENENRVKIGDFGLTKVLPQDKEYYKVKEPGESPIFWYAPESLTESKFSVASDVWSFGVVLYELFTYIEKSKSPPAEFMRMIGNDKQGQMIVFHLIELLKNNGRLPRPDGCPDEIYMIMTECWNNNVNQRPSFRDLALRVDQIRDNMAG

Compound	IC50
Cc1nc2ccc(CN(C)c3ccc(C(=O)N[C@@H](CCC(=O)O)C(=O)O)s3)cc2c(=O)[nH]1 [raltitrexed, reference compound]	> 20000 nM
COc1cc(NCc2ccc3nc(N)nc(N)c3c2C)cc(OC)c1OC [trimetrexate, reference compound]	> 20000 nM

test system: RKO; assay: cells; assay type: cell-based; conditions: Homo sapiens, RKO, 72 h, read-out: RKO viab. IC50

Compound	IC50
Cc1nc2ccc(CN(C)c3ccc(C(=O)N[C@@H](CCC(=O)O)C(=O)O)s3)cc2c(=O)[nH]1 [raltitrexed, reference compound]	3 nM
COc1cc(NCc2ccc3nc(N)nc(N)c3c2C)cc(OC)c1OC [trimetrexate, reference compound]	3 nM

same assay, conditions: Homo sapiens, RKO, read-out: Basal_Viability ATP RKO

Compound	IC50
Cc1nc2ccc(CN(C)c3ccc(C(=O)N[C@@H](CCC(=O)O)C(=O)O)s3)cc2c(=O)[nH]1 [raltitrexed, reference compound]	2.88 nM
COc1cc(NCc2ccc3nc(N)nc(N)c3c2C)cc(OC)c1OC [trimetrexate, reference compound]	2.72 nM

test system: SW480; assay: cells; assay type: cell-based; conditions: Homo sapiens, SW480, 72 h, read-out: SW480 viab. IC50

Compound	IC50
Cc1nc2ccc(CN(C)c3ccc(C(=O)N[C@@H](CCC(=O)O)C(=O)O)s3)cc2c(=O)[nH]1 [raltitrexed, reference compound]	1 nM
COc1cc(NCc2ccc3nc(N)nc(N)c3c2C)cc(OC)c1OC [trimetrexate, reference compound]	59 nM

same assay, conditions: Homo sapiens, SW480, read-out: Basal_Viability ATP SW480

Compound	IC50
COc1cc(NCc2ccc3nc(N)nc(N)c3c2C)cc(OC)c1OC [trimetrexate, reference compound]	59.1 nM

biological target: T2, hGSK3b (Homo sapiens, UniProt P49841); assay: Cerep LANCE kinase assay hGSK3b (S1 assay 34); assay type: biochemical; conditions: read-out: GSK3b
T2 construct: purchased Cerep (LANCE kinase assay platform, contract assay)
T2 sequence (P49841 whole entry): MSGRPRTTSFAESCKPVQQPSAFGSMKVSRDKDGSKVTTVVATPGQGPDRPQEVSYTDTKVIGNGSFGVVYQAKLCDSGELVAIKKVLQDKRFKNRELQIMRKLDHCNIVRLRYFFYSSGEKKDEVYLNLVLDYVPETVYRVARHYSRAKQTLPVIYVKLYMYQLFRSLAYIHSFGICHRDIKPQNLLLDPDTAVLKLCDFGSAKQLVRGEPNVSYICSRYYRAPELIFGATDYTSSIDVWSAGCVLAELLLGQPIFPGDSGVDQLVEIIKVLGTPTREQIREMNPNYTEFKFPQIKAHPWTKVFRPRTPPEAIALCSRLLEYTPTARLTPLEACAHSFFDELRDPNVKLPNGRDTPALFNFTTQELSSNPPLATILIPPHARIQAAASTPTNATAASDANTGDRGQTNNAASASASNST

Compound	IC50
Cc1nc2ccc(CN(C)c3ccc(C(=O)N[C@@H](CCC(=O)O)C(=O)O)s3)cc2c(=O)[nH]1 [raltitrexed, reference compound]	3990 nM
COc1cc(NCc2ccc3nc(N)nc(N)c3c2C)cc(OC)c1OC [trimetrexate, reference compound]	> 20000 nM

test system: HCT116; assay: cells; assay type: cell-based; conditions: Homo sapiens, HCT-116, 72 h, read-out: HCT-116 viab. IC50

Compound	IC50
Cc1nc2ccc(CN(C)c3ccc(C(=O)N[C@@H](CCC(=O)O)C(=O)O)s3)cc2c(=O)[nH]1 [raltitrexed, reference compound]	4 nM
COc1cc(NCc2ccc3nc(N)nc(N)c3c2C)cc(OC)c1OC [trimetrexate, reference compound]	23 nM

same assay, conditions: Homo sapiens, HCT-116, read-out: Basal_Viability ATP HCT116

Compound	IC50
Cc1nc2ccc(CN(C)c3ccc(C(=O)N[C@@H](CCC(=O)O)C(=O)O)s3)cc2c(=O)[nH]1 [raltitrexed, reference compound]	4.24 nM
COc1cc(NCc2ccc3nc(N)nc(N)c3c2C)cc(OC)c1OC [trimetrexate, reference compound]	23.1 nM

biological target: T3, hp70S6K1 (RPS6KB1) (Homo sapiens, UniProt P23443); assay: Cerep LANCE kinase assay hp70S6K1 (S1 assay 31); assay type: biochemical; conditions: read-out: p70S6K1
T3 construct: purchased Cerep (LANCE kinase assay platform, contract assay)
T3 sequence (P23443 whole entry): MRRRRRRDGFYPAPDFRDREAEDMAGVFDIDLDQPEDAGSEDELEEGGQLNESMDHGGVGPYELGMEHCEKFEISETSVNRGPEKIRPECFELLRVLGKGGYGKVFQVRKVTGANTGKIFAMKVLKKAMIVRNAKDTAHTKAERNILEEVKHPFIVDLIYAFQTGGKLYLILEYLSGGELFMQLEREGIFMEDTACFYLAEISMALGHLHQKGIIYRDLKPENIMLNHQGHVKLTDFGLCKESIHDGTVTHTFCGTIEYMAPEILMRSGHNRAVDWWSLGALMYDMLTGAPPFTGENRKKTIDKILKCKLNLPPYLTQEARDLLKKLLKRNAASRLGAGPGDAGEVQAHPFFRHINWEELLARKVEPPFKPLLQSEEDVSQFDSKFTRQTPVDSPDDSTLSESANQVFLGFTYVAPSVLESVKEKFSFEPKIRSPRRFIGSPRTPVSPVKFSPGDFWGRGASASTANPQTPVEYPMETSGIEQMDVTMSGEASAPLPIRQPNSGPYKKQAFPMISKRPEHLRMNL

Compound	IC50
Cc1nc2ccc(CN(C)c3ccc(C(=O)N[C@@H](CCC(=O)O)C(=O)O)s3)cc2c(=O)[nH]1 [raltitrexed, reference compound]	> 20000 nM
COc1cc(NCc2ccc3nc(N)nc(N)c3c2C)cc(OC)c1OC [trimetrexate, reference compound]	> 20000 nM

test system: SNU-C1; assay: cells; assay type: cell-based; conditions: Homo sapiens, SNU-C1, 72 h, read-out: SNU-C1 viab. IC50

Compound	IC50
Cc1nc2ccc(CN(C)c3ccc(C(=O)N[C@@H](CCC(=O)O)C(=O)O)s3)cc2c(=O)[nH]1 [raltitrexed, reference compound]	> 20000 nM
COc1cc(NCc2ccc3nc(N)nc(N)c3c2C)cc(OC)c1OC [trimetrexate, reference compound]	5100 nM

same assay, conditions: Homo sapiens, SNU-C1, read-out: Basal_Viability ATP SNU-C1

Compound	IC50
COc1cc(NCc2ccc3nc(N)nc(N)c3c2C)cc(OC)c1OC [trimetrexate, reference compound]	5130 nM

test system: NCI-H716 cells; assay: cells; assay type: cell-based, Human; conditions: Homo sapiens, NCI-H716, read-out: GLP1 sec. EC50

Compound	EC50
Cc1nc2ccc(CN(C)c3ccc(C(=O)N[C@@H](CCC(=O)O)C(=O)O)s3)cc2c(=O)[nH]1 [raltitrexed, reference compound]	> 10000 nM
COc1cc(NCc2ccc3nc(N)nc(N)c3c2C)cc(OC)c1OC [trimetrexate, reference compound]	> 10000 nM

biological target: T4, hKDR (Homo sapiens, UniProt P35968); assay: Cerep LANCE kinase assay hKDR (S1 assay 32); assay type: biochemical; conditions: read-out: KDR
T4 construct: purchased Cerep (LANCE kinase assay platform, contract assay)
T4 sequence (P35968 20-1356): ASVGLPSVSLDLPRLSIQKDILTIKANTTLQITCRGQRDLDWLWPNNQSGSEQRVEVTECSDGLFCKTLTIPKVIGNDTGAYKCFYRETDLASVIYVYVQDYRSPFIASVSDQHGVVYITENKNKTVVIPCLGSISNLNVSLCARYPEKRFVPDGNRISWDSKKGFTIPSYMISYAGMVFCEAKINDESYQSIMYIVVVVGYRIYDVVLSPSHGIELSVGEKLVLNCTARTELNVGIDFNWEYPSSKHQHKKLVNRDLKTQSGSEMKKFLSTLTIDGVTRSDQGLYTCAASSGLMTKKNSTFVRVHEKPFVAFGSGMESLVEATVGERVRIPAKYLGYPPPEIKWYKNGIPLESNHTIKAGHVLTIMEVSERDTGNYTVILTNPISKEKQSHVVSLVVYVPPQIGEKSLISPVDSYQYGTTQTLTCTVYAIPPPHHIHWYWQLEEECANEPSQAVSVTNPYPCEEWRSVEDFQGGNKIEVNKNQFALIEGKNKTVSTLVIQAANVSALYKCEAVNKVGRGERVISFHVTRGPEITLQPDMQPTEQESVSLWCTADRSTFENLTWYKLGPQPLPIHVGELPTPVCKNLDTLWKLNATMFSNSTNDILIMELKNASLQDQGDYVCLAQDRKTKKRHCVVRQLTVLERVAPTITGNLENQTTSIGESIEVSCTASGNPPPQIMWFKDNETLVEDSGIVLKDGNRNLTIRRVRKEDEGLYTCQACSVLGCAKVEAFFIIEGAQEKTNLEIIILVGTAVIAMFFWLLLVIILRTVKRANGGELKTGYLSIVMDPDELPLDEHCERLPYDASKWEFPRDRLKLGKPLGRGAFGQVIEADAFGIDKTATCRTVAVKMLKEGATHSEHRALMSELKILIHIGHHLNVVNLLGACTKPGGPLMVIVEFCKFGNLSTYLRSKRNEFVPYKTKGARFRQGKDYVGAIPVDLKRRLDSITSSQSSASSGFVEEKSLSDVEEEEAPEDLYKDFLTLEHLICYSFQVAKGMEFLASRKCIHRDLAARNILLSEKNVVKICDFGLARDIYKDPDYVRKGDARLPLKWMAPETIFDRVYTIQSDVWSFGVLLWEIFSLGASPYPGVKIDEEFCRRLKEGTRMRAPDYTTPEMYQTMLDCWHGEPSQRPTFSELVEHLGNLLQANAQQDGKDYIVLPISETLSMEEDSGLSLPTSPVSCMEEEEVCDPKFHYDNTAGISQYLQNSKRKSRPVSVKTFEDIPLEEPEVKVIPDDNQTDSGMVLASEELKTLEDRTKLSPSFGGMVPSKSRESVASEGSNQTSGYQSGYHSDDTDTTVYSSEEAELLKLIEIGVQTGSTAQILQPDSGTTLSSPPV

Compound	IC50
Cc1nc2ccc(CN(C)c3ccc(C(=O)N[C@@H](CCC(=O)O)C(=O)O)s3)cc2c(=O)[nH]1 [raltitrexed, reference compound]	> 20000 nM
COc1cc(NCc2ccc3nc(N)nc(N)c3c2C)cc(OC)c1OC [trimetrexate, reference compound]	> 20000 nM

biological target: T5, hFLT3 (Homo sapiens, UniProt P36888); assay: Cerep LANCE kinase assay hFLT3 (S1 assay 35); assay type: biochemical; conditions: read-out: FLT3
T5 construct: purchased Cerep (LANCE kinase assay platform, contract assay)
T5 sequence (P36888 27-993): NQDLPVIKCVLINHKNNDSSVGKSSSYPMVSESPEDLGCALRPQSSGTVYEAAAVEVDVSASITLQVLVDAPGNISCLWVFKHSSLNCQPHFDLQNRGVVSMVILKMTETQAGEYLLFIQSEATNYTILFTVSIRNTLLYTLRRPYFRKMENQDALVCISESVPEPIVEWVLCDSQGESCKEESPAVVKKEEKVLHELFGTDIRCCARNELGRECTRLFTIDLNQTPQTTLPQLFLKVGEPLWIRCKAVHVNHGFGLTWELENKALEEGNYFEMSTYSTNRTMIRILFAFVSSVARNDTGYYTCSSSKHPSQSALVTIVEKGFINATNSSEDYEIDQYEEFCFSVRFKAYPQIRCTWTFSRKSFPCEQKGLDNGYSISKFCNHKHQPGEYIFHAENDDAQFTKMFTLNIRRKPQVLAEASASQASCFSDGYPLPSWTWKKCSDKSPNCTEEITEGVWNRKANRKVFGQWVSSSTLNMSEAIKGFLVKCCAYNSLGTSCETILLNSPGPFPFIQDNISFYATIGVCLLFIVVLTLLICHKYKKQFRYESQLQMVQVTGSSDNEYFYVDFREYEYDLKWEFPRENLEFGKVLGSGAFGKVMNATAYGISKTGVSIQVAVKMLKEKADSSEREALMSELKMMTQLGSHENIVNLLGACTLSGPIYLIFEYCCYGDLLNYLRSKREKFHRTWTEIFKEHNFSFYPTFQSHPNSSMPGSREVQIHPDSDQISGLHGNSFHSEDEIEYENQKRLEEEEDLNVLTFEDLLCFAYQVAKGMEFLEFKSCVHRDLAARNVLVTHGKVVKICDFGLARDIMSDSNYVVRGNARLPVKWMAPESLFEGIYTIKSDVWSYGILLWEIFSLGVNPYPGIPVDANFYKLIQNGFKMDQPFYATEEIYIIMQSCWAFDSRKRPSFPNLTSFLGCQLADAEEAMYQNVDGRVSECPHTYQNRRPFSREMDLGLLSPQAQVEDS

Compound	IC50
Cc1nc2ccc(CN(C)c3ccc(C(=O)N[C@@H](CCC(=O)O)C(=O)O)s3)cc2c(=O)[nH]1 [raltitrexed, reference compound]	> 20000 nM
COc1cc(NCc2ccc3nc(N)nc(N)c3c2C)cc(OC)c1OC [trimetrexate, reference compound]	> 20000 nM

test system: DLD-1; assay: cells; assay type: cell-based; conditions: Homo sapiens, DLD-1, 72 h, read-out: DLD-1 viab. IC50

Compound	IC50
Cc1nc2ccc(CN(C)c3ccc(C(=O)N[C@@H](CCC(=O)O)C(=O)O)s3)cc2c(=O)[nH]1 [raltitrexed, reference compound]	> 20000 nM
COc1cc(NCc2ccc3nc(N)nc(N)c3c2C)cc(OC)c1OC [trimetrexate, reference compound]	200 nM

same assay, conditions: Homo sapiens, DLD-1, read-out: Basal_Viability ATP DLD-1

Compound	IC50
COc1cc(NCc2ccc3nc(N)nc(N)c3c2C)cc(OC)c1OC [trimetrexate, reference compound]	195 nM
